# Source: the supplement of paper PMC10307832
# What was measured:
# Assay in all cases: relative viability (nuclei count vs DMSO), 5 days (fraction); higher = more cells survive
# [1] = system: NCI-H1437
# In short: (§1)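 Lung cancer cell lines in 1536-well plates were dosed by pin tool the day after seeding, either with one drug alone or with a fixed anchor-drug dose plus five library-drug doses (not always all listed) in √10 steps. After 5 days, cells were fixed and their nuclei stained in one step (final 0.05% Triton X-100, 1% formaldehyde, 1 ug/ml Hoechst), then counted on 4× images. Relative viability is the nuclei count in treated wells divided by that in vehicle wells. Values are medians of duplicate plates.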
# [2] = system: NCI-H23
# In short: as §1
# [3] = system: HCC-366
# In short: as §1
# [4] = system: SW 1573
# In short: as §1
# [5] = system: NCI-H727
# In short: as §1
# [6] = system: NCI-H460
# In short: as §1
# [7] = system: HCC-827
# In short: as §1
# [8] = system: CAL-12T
# In short: as §1
# [9] = system: LCLC-103H
# In short: as §1
# [10] = system: HOP-62
# In short: as §1
# [11] = system: SK-LU-1
# In short: as §1
# [12] = system: NCI-H1395
# In short: as §1
# [13] = system: EMC-BAC-2
# In short: as §1
# [14] = system: COR-L 105
# In short: as §1
# [15] = system: NCI-H1915
# In short: as §1
# [16] = system: HARA
# In short: as §1
# [17] = system: NCI-H2228
# In short: as §1
# [18] = system: NCI-H2009
# In short: as §1
# [19] = system: NCI-H1755
# In short: as §1
# [20] = system: A-427
# In short: as §1
structure (smiles),measurement,setting,value
O=c1cc(N2CCOCC2)oc2c(-c3cccc4c3sc3ccccc34)cccc12 + COc1cc2c(Oc3ccc(NC(=O)C4(C(=O)Nc5ccc(F)cc5)CC4)cc3F)ccnc2cc1OCCCN1CCOCC1 [Foretinib] (partner 0.25 µM),relative viability,[1]; first compound 0.01 µM,0.877
same,relative viability,[1]; first compound 0.03162 µM,1.28
same,relative viability,[1]; first compound 0.1 µM,1.26
same,relative viability,[1]; first compound 0.3162 µM,1.25
same,relative viability,[1]; first compound 1 µM,1.23
same,relative viability,[2]; first compound 0.01 µM,1.02
same,relative viability,[2]; first compound 0.03162 µM,1.01
same,relative viability,[2]; first compound 0.3162 µM,1.06
same,relative viability,[2]; first compound 1 µM,0.919
same,relative viability,[3]; first compound 0.01 µM,0.941
same,relative viability,[3]; first compound 0.03162 µM,0.918
same,relative viability,[3]; first compound 0.1 µM,0.99
same,relative viability,[3]; first compound 0.3162 µM,0.961
same,relative viability,[3]; first compound 1 µM,0.853
same,relative viability,[4]; first compound 0.01 µM,0.537
same,relative viability,[4]; first compound 0.03162 µM,0.982
same,relative viability,[4]; first compound 0.1 µM,0.87
same,relative viability,[4]; first compound 0.3162 µM,0.87
same,relative viability,[4]; first compound 1 µM,1.07
same,relative viability,[5]; first compound 0.01 µM,1.05
same,relative viability,[5]; first compound 0.03162 µM,0.822
same,relative viability,[5]; first compound 0.1 µM,0.908
same,relative viability,[5]; first compound 0.3162 µM,1
same,relative viability,[5]; first compound 1 µM,0.865
same,relative viability,[6]; first compound 0.01 µM,0.981
same,relative viability,[6]; first compound 0.03162 µM,1.03
same,relative viability,[6]; first compound 0.1 µM,0.987
same,relative viability,[6]; first compound 0.3162 µM,0.985
same,relative viability,[6]; first compound 1 µM,1.04
same,relative viability,[7]; first compound 0.01 µM,1.01
same,relative viability,[7]; first compound 0.03162 µM,1.11
same,relative viability,[7]; first compound 0.1 µM,1.03
same,relative viability,[7]; first compound 0.3162 µM,1.04
same,relative viability,[7]; first compound 1 µM,1.03
same,relative viability,[8]; first compound 0.01 µM,1.12
same,relative viability,[8]; first compound 0.03162 µM,0.973
same,relative viability,[8]; first compound 0.1 µM,1.14
same,relative viability,[8]; first compound 0.3162 µM,1.03
same,relative viability,[8]; first compound 1 µM,1.11
same,relative viability,[9]; first compound 0.01 µM,0.685
same,relative viability,[9]; first compound 0.03162 µM,0.786
same,relative viability,[9]; first compound 0.1 µM,0.806
same,relative viability,[9]; first compound 0.3162 µM,0.824
same,relative viability,[9]; first compound 1 µM,0.746
same,relative viability,[10]; first compound 0.01 µM,1.1
same,relative viability,[10]; first compound 0.03162 µM,1.17
same,relative viability,[10]; first compound 0.1 µM,1.11
same,relative viability,[10]; first compound 0.3162 µM,1.14
same,relative viability,[10]; first compound 1 µM,1.16
same,relative viability,[11]; first compound 0.01 µM,0.893
same,relative viability,[11]; first compound 0.03162 µM,0.918
same,relative viability,[11]; first compound 0.1 µM,0.789
same,relative viability,[11]; first compound 0.3162 µM,0.834
same,relative viability,[11]; first compound 1 µM,0.768
same,relative viability,[12]; first compound 0.01 µM,0.995
same,relative viability,[12]; first compound 0.03162 µM,0.915
same,relative viability,[12]; first compound 0.1 µM,0.973
same,relative viability,[12]; first compound 0.3162 µM,1.17
same,relative viability,[12]; first compound 1 µM,0.986
same,relative viability,[13]; first compound 0.01 µM,1.01
same,relative viability,[13]; first compound 0.03162 µM,0.995
same,relative viability,[13]; first compound 0.1 µM,0.99
same,relative viability,[13]; first compound 0.3162 µM,0.983
same,relative viability,[13]; first compound 1 µM,0.978
same,relative viability,[14]; first compound 0.01 µM,0.986
same,relative viability,[14]; first compound 0.03162 µM,1.1
same,relative viability,[14]; first compound 0.1 µM,0.681
same,relative viability,[14]; first compound 0.3162 µM,1.04
same,relative viability,[14]; first compound 1 µM,1.21
same,relative viability,[15]; first compound 0.01 µM,1.12
same,relative viability,[15]; first compound 0.03162 µM,1.1
same,relative viability,[15]; first compound 0.1 µM,1.16
same,relative viability,[15]; first compound 0.3162 µM,1.11
same,relative viability,[15]; first compound 1 µM,1.06
same,relative viability,[16]; first compound 0.01 µM,0.768
same,relative viability,[16]; first compound 0.03162 µM,0.897
same,relative viability,[16]; first compound 0.1 µM,0.857
same,relative viability,[16]; first compound 0.3162 µM,0.864
same,relative viability,[16]; first compound 1 µM,0.903
same,relative viability,[17]; first compound 0.01 µM,0.864
same,relative viability,[17]; first compound 0.03162 µM,1.08
same,relative viability,[17]; first compound 0.1 µM,0.981
same,relative viability,[17]; first compound 0.3162 µM,0.89
same,relative viability,[17]; first compound 1 µM,0.9
same,relative viability,[18]; first compound 0.01 µM,1.19
same,relative viability,[18]; first compound 0.03162 µM,1.21
same,relative viability,[18]; first compound 0.1 µM,1.23
same,relative viability,[18]; first compound 0.3162 µM,1.22
same,relative viability,[18]; first compound 1 µM,1.11
same,relative viability,[19]; first compound 0.01 µM,0.899
same,relative viability,[19]; first compound 0.03162 µM,0.952
same,relative viability,[19]; first compound 0.1 µM,0.959
same,relative viability,[19]; first compound 0.3162 µM,0.926
same,relative viability,[19]; first compound 1 µM,0.934
same,relative viability,[20]; first compound 0.01 µM,1.04
same,relative viability,[20]; first compound 0.03162 µM,1.2
same,relative viability,[20]; first compound 0.1 µM,0.972
same,relative viability,[20]; first compound 0.3162 µM,1.01
same,relative viability,[20]; first compound 1 µM,1
